Reference: patent US6875865B1, “Selected derivatives of K-252a” (Cephalon, Inc., priority 1996, dated 2005)

How the values were obtained:
[1] = test system: dissociated spinal cord cultures; test: Spinal Cord ChAT Activity Assay; type: cell-based, rat
Method: The effect of selected ring substituted K-252a derivatives on CHAT activity was assayed in dissociated spinal cord cultures prepared from fetal rats using the procedure described in U.S. Pat. No. 5,461,146, Columns 26 and 27, Examples 6 and 7. ChAT is the enzyme that catalyzes the synthesis of the neurotransmitter acetylcholine, and it is a specific biochemical marker for cholinergic neurons. In the spinal cord, the large majority of cholinergic neurons are motor neurons. Assay of this enzyme may thus be used as an indication of the effects of a factor, or actors, on the survival of cholinergic neurons and/or regulation of this enzyme.
(§1) Compounds which increased ChAT activity at least 120% of the control activity are considered active.

basal forebrain cultures = test: Basal Forebrain ChAT Activity Assay; type: cell-based, rat; settings: day six
Method: Compounds of the invention were assessed for their ability to promote survival and increase in ChAT activity in basal forebrain cultures. ChAT activity in these cultures is a biochemical marker for the cholinergic neurons (less than 5% of the cells in culture), which represent the major cholinergic input to the hippocampal formation, olfactory nucleus, interpeduncular nucleus, cortex, amygdala, and parts of the thalamus. […] The basal forebrain was dissected from embryonic day 17 or 18 rat embryos and the cells were […] with Dispase™ (neutral protease, Collaborative Research). Neurons were plated at 5×10^4 cells/well (1.5×10^5 cells/cm^2) in wells of 96-well plates previously coated with […] and laminin. Cells were cultured in serum-free N2 medium containing 0.05% bovine serum albumin (BSA) (Bottenetein et al., supra) at 37° in a humidified atmosphere of 5% CO2/95% air. ChAT activity was measured in vitro at day six, using a modification of the Formum procedure (supra) according to McManaman et al. (supra) and Glicksman et al. (J. Neurochem. 61:210-221, 1993).
as §1

protein kinase C (PKC) = settings: reported in the literature; cited from earlier work
[2] = concentration not given, tested between 10 nM and 500 nM, at least 120% of control = active
[3] = concentration not given, at least 120% of control = active

Row | Compound | ChAT Activity maximum efficacy % of Control (conc) ([1]; maximum efficacy at 300 nM) | ChAT Activity maximum efficacy % of Control (conc) (basal forebrain cultures; maximum efficacy at 250 nM) | further results
1 | CCOC(=O)C=Cc1ccc2c(c1)c1c3c(c4c5ccccc5n5c4c1n2C1(C)OC5CC1(O)C(=O)OC)C(=O)NC3 (stereo not drawn) [Compound 12] | 269 (300 nM) % of Control |  | ChAT Activity maximum efficacy % of Control (conc) (basal forebrain cultures; maximum efficacy at 500 nM): 184 (500 nM) % of Control
2 | COC(=O)C1(O)CC2OC1(C)n1c3ccc(C=Cc4ccccn4)cc3c3c4c(c5c6ccccc6n2c5c31)C(=O)NC4 (stereo not drawn) [Compound 13] |  |  | ChAT Activity maximum efficacy % of Control (conc) ([1]; maximum efficacy at 30 nM): 271 (30 nM) % of Control; ChAT Activity maximum efficacy % of Control (conc) (basal forebrain cultures; maximum efficacy at 100 nM): 167 (100 nM) % of Control
3 | COC(=O)C1(O)CC2OC1(C)n1c3ccc(CCc4ccccn4)cc3c3c4c(c5c6ccccc6n2c5c31)C(=O)NC4 (stereo not drawn) [Compound 14] | 282 (300 nM) % of Control |  | ChAT Activity maximum efficacy % of Control (conc) (basal forebrain cultures; maximum efficacy at 500 nM): 229 (500 nM) % of Control
4 | CCSCC(=O)c1ccc2c(c1)c1c3c(c4c5ccccc5n5c4c1n2C1(C)OC5CC1(O)C(=O)OC)C(=O)NC3 (stereo not drawn) [Compound 41] | 204 (300 nM) % of Control |  | ChAT Activity maximum efficacy % of Control (conc) (basal forebrain cultures; [2]): <120 % of Control
5 | COC(=O)C1(O)CC2OC1(C)n1c3ccc(C(=O)CSc4nnnn4C)cc3c3c4c(c5c6cc(C(=O)CSc7nnnn7C)ccc6n2c5c31)C(=O)NC4 (stereo not drawn) [Compound 52] |  |  | ChAT Activity maximum efficacy % of Control (conc) [1, 3]: <120 % of Control; ChAT Activity maximum efficacy % of Control (conc) (basal forebrain cultures; [2]): <120 % of Control
6 | COCCC(=O)c1ccc2c(c1)c1c3c(c4c5cc(C(=O)CCOC)ccc5n5c4c1n2C1CC(O)(C(=O)OC)C5(C)O1)CNC3=O (stereo not drawn) [Compound 54] |  | 167 (250 nM) % of Control | ChAT Activity maximum efficacy % of Control (conc) [1, 3]: <120 % of Control
7 | COC(=O)C1(O)CC2OC1(C)n1c3ccc(C(O)CCCl)cc3c3c4c(c5c6cc(C(O)CCCl)ccc6n2c5c31)C(=O)NC4 (stereo not drawn) [Compound 59] | 160 (300 nM) % of Control | 131 (250 nM) % of Control | 
8 | COC(=O)C1(O)CC2OC1(C)n1c3ccc(C#CCN(C)Cc4ccccc4)cc3c3c4c(c5c6cc(Br)ccc6n2c5c31)C(=O)NC4 (stereo not drawn) [Compound 62] | 235 (300 nM) % of Control |  | ChAT Activity maximum efficacy % of Control (conc) (basal forebrain cultures; maximum efficacy at 50 nM): 202 (50 nM) % of Control
9 | CCC=Cc1ccc2c(c1)c1c3c(c4c5cc(C=CCC)ccc5n5c4c1n2C1CC(O)(C(=O)OC)C5(C)O1)CNC3=O (stereo not drawn) [Compound 68] | 291 (300 nM) % of Control | 290 (250 nM) % of Control | 
10 | COC(=O)C1(O)CC2OC1(C)n1c3ccc(CCO)cc3c3c4c(c5c6cc(CCO)ccc6n2c5c31)C(=O)NC4 (stereo not drawn) [Compound 70c] | 186 (300 nM) % of Control | 203 (250 nM) % of Control | 
11 | COC(=O)C1(O)CC2OC1(C)n1c3ccc(CCOC(=O)c4ccncc4)cc3c3c4c(c5c6cc(CCOC(=O)c7ccncc7)ccc6n2c5c31)C(=O)NC4 (stereo not drawn) [Compound 71] | 193 (300 nM) % of Control | 152 (250 nM) % of Control | 
12 | COC(=O)C1(O)CC2OC1(C)n1c3ccc(CCN=[N+]=[N-])cc3c3c4c(c5c6cc(CCN=[N+]=[N-])ccc6n2c5c31)C(=O)NC4 (stereo not drawn) [Compound 81] | 131 (300 nM) % of Control |  | ChAT Activity maximum efficacy % of Control (conc) (basal forebrain cultures; [2]): <120 % of Control
13 | COC(=O)C1(O)CC2OC1(C)n1c3ccc(CCSC)cc3c3c4c(c5c6cc(CCSC)ccc6n2c5c31)C(=O)NC4 (stereo not drawn) [Compound 87] | 294 (300 nM) % of Control | 262 (250 nM) % of Control | 
14 | CCSCCc1ccc2c(c1)c1c3c(c4c5cc(CCSCC)ccc5n5c4c1n2C1CC(O)(C(=O)OC)C5(C)O1)CNC3=O (stereo not drawn) [Compound 88] | 190 (300 nM) % of Control |  | ChAT Activity maximum efficacy % of Control (conc) (basal forebrain cultures; [2]): <120 % of Control
15 | COC(=O)C1(O)CC2OC1(C)n1c3ccc(CCSc4ccc(O)cc4)cc3c3c4c(c5c6cc(CCSc7ccc(O)cc7)ccc6n2c5c31)C(=O)NC4 (stereo not drawn) [Compound 91] |  |  | ChAT Activity maximum efficacy % of Control (conc) [1, 3]: <120 % of Control; ChAT Activity maximum efficacy % of Control (conc) (basal forebrain cultures; [2]): <120 % of Control
16 | COC(=O)C1(O)CC2OC1(C)n1c3ccc(CCSc4ccccn4)cc3c3c4c(c5c6cc(CCSc7ccccn7)ccc6n2c5c31)C(=O)NC4 (stereo not drawn) [Compound 94] | 152 (300 nM) % of Control | 166 (250 nM) % of Control | 
17 | COC(=O)C1(O)CC2OC1(C)n1c3ccc(CCCSC)cc3c3c4c(c5c6cc(CCCSC)ccc6n2c5c31)C(=O)NC4 (stereo not drawn) [Compound 95] | 272 (300 nM) % of Control | 239 (250 nM) % of Control | 
18 | CCOCOCc1ccc2c(c1)c1c3c(c4c5cc(COCOCC)ccc5n5c4c1n2C1CC(O)(C(=O)OC)C5(C)O1)CNC3=O (stereo not drawn) [Compound 156] | 217 (300 nM) % of Control |  | 
19 | COC(=O)C1(O)CC2OC1(C)n1c3ccccc3c3c4c(c5c6ccccc6n2c5c31)C(=O)NC4 (stereo not drawn) [Compound K-252a, K-252a] |  |  | inhibition of protein kinase C (PKC) (protein kinase C (PKC)): strongly inhibits
